Assay [1] deals with SNHG17-overexpressing breast cancer cells (MCF-7). Put plainly: Plate colony formation experiment, fulvestrant resistance of SNHG17-overexpressing cells. The assay is classed as cell-based, human. To be noted: medium containing 6 μmol/L fulvestrant, 15 days; SNHG17-overexpressing cells vs SNHG17-overexpressing control cells (FIG. 4). As to the method:
The above-mentioned SNHG17-overexpressing control breast cancer cells and SNHG17-overexpressing breast cancer cells were selected for experiments to detect the drug resistance to fulvestrant. 1000 well-grown cells were inoculated into a culture plate (diameter 60 mm) containing DMEM complete medium, then gently shook the culture plate to disperse the cells evenly. The cells were incubated at 37° C., 5V/V % CO2 for 15 days, and replaced complete medium every 3 days. When colonies were visible to the naked eye in the culture dish, the culture was terminated and the culture medium was discarded. After that, the cells were carefully washed twice by PBS and dried. Methanol was used for anchor cells for 15 min, then the methanol was discarded and cells were air-dried. Cells were stained with Giemsa staining solution (purchased from Merck) for 10 min, then the staining solution was slowly washed away with running water, and cells were air-dried. Experiments were divided into blank group (SNHG17-overexpressing control breast cancer stable cells, medium containing 6 μmol/L DMSO), control group (SNHG17-overexpressing control breast cancer cells, medium containing 6 μmol/L fulvestrant), overexpression group (SNHG17-overexpressing breast cancer cells, medium containing 6 μmol/L fulvestrant) 3 groups. […]

Assay [2] shares this test system. Put plainly: Sensitivity detection of breast cancer cells to fulvestrant (MTT). To be noted: fulvestrant 2, 4, 8, 16 μmol/L, 48 h, SNHG17-overexpressing cells vs control cells (FIG. 5). It is filed as cell-based, human. As to the method:
MCF-7 and SNHG17 overexpressing breast cancer cells in the logarithmic growth phase were inoculated into 96-well plates (with DMEM complete medium) at a density of 3000 cells per well. Then cells were cultured in a 37° C. 5V/V % CO2 incubator until the cells adhered to the plates. Then added fulvestrant respectively, and the final concentration was 0 (cell control group), 2, 4, 8, and 16 μmol/L. Each concentration was set in 4 duplicate wells, and a blank control group was set at the same time. After being cultured for 48 hours in a 37° C., 5V/V % CO2 incubator, 20 μL of MTT (5 g/L) solution was added to each well. After culturing for 4 hours, discarded the medium and added triple solution (10 g SDS, 5 mL of isobutanol, 0.1 mL of 10M hydrochloric acid, and ddH2O to make a 100 mL solution) and incubated overnight. Then the absorbance (A570 nm) value was measured at 570 nm with an enzyme calibration. The triple solution was used as a blank control group to detect the cells' survival rate. Growth inhibition rate (%)=(control group A570 nm—experimental group A570 nm)/cell control group A570 nm×100%. The growth inhibition rate of fulvestrant on breast cancer cells is shown in FIG. 5, wherein C stands for SNHG17-overexpressing control breast cancer cells, D stands for SNHG17-overexpressing breast cancer cells, *P<0.05, **P<0.01 indicates the data had statistical significance.

Data on 1 molecule can be found in patent US11866707B2, “Use of non-coding RNA SNHG17 as biomarker and therapeutic target” (ZHEJIANG CANCER HOSPITAL, priority 2022, dated 2024).

For the molecule `C[C@]12CC[C@@H]3c4ccc(O)cc4C[C@@H](CCCCCCCCC[S+]([O-])CCCC(F)(F)C(F)(F)F)[C@H]3[C@@H]1CC[C@@H]2O` (some centres unmarked) [fulvestrant], the “number of colonies formed” value in assay [1] is on record as “greater than that of SNHG17-overexpressing control breast cancer cells”. Further, the “growth inhibition rate of fulvestrant on breast cancer cells” value in assay [2] is given as “significantly greater than that in SNHG17-overexpressing control breast cancer cells”.
